Experimental data: PMC3156125, “Reconstitution of the Costunolide Biosynthetic Pathway in Yeast and Nicotiana benthamiana” (PLoS ONE, 2011)

Key:
Assay type in all cases: cell-based
CiCOS = molecular target: T1, CiCOS (Cichorium intybus, UniProt G3GBK0); assay: yeast co-expression, GC-MS and UPLC-MRM-MS; conditions: WAT11 yeast with TpGAS and CiGAO; substrate formed in situ; HEPES or MOPS pH 7.5, 30 °C; also N. benthamiana transient expression
T1 construct: gene CYP71BL3; full-length cDNA in pYEDP60, WAT11 yeast, co-expressed with TpGAS and CiGAO; also N. benthamiana
T1 sequence (G3GBK0 1-494): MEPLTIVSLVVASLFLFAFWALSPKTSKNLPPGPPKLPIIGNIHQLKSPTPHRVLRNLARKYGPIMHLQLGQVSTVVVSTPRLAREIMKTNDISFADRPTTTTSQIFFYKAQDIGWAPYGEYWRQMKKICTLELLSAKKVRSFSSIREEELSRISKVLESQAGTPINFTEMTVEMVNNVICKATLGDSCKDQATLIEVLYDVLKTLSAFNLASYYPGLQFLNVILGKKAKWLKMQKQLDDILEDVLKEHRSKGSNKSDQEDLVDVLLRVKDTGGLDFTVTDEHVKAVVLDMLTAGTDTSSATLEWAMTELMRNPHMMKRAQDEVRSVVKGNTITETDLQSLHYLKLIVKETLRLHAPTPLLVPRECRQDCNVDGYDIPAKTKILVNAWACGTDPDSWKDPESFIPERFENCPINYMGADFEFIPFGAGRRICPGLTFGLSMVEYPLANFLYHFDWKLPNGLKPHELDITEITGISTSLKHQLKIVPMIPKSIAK

CiGAO [1] = molecular target: T2, CiGAO (Cichorium intybus, UniProt D5JBW8); assay: yeast co-expression, GC-MS; conditions: WAT11 yeast with TpGAS; detected as elematrien-12-oic acid after heat rearrangement
T2 construct: cDNA from chicory library, no terminal tags, pESC-Trp in WAT11 yeast with TpGAS
T2 sequence (D5JBW8 1-488): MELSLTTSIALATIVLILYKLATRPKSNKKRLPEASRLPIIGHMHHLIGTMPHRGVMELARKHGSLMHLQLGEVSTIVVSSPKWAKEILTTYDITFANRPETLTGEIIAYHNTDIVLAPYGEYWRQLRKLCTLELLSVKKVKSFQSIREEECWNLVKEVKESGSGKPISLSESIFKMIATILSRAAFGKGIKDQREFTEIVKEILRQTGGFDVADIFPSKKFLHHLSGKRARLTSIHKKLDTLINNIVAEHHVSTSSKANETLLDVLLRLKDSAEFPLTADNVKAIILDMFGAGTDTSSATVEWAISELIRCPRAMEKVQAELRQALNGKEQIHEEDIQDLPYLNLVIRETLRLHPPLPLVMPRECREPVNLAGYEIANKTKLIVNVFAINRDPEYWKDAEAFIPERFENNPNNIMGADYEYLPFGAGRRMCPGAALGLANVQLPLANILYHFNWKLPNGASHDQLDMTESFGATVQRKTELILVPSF

CiGAS-l (CiGAS-long) = molecular target: T3, CiGAS-l (CiGAS-long) (Cichorium intybus, UniProt Q8LSC3); assay: yeast culture extract, GC-MS; conditions: endogenous farnesyl diphosphate
T3 sequence (Q8LSC3 1-583): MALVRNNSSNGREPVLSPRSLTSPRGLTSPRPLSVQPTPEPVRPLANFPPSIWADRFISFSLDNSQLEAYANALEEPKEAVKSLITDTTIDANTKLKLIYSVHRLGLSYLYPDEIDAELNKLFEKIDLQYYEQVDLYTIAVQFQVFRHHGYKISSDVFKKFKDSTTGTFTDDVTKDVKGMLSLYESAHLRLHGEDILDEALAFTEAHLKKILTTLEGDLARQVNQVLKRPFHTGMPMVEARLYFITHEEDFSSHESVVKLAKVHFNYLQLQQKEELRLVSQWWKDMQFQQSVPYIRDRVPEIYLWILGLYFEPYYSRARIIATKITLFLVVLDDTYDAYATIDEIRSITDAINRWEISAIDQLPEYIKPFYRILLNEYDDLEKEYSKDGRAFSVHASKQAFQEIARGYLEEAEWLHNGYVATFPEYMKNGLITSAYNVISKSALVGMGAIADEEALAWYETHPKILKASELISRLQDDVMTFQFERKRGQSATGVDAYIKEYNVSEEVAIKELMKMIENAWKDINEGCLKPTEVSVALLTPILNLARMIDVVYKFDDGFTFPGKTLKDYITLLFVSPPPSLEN

TpGAS = molecular target: T4, TpGAS (Tanacetum parthenium, UniProt F8UL80); assay: yeast culture extract, GC-MS; conditions: endogenous farnesyl diphosphate; also N. benthamiana headspace
T4 construct: gene GAS
T4 sequence (F8UL80 1-559): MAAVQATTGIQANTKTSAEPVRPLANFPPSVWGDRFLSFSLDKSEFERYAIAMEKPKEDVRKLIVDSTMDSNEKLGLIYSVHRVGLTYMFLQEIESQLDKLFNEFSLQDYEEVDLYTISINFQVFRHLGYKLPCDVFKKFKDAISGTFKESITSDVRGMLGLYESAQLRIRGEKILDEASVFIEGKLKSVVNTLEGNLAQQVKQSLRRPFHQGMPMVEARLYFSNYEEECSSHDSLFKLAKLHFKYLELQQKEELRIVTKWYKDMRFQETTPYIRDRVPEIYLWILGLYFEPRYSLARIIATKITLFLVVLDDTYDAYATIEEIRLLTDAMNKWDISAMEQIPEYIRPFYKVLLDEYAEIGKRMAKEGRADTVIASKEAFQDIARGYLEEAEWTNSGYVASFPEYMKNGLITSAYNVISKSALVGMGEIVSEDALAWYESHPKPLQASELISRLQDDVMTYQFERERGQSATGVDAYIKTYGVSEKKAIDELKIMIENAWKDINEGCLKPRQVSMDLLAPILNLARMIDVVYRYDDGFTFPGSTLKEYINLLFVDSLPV

CiGAO [2] = molecular target: T2, CiGAO; assay: N. benthamiana co-infiltration, headspace GC-MS; conditions: with mTpGAS; substrate formed in situ

C=C1C(=O)O[C@@H]2/C=C(\C)CC/C=C(\C)CC[C@@H]12 [costunolide]
yeast co-expression, GC-MS and UPLC-MRM-MS (CiCOS): encodes an enzymatic activity which was able to produce costunolide

C=C(C(=O)O)[C@H]1C/C=C(\C)CC/C=C(\C)CC1 [germacra-1(10),4,11(13)-trien-12-oic acid]
yeast co-expression, GC-MS (CiGAO [1]): enzymatic activity was confirmed in our yeast system by co-expression of TpGAS and CiGAO

C=C(C)[C@H]1C/C=C(\C)CC/C=C(\C)CC1 [germacrene A]
yeast culture extract, GC-MS (CiGAS-l (CiGAS-long)): Germacrene A production in yeast. A yeast culture transformed by either CiGAS-long
yeast culture extract, GC-MS (TpGAS): yeast culture expressing TpGAS had an approximately three fold higher activity
N. benthamiana co-infiltration, headspace GC-MS (CiGAO [2]): CiGAO can efficiently catalyse the conversion of the product of mTpGAS, germacrene A
